Source: ChEMBL document CHEMBL1155406, “Synthesis and chain-dependent antifungal activity of long-chain 2H-azirine-carboxylate esters related to dysidazirine” (Bioorg Med Chem Lett, 2010)
The source made the active and inactive calls. No cut-off for these calls is given here.

Columns and labels:
Nakaseomyces glabratus [1] = experiment: Antifungal activity against Candida glabrata by broth microdilution method; format: functional
Cryptococcus neoformans [2] = experiment: Antifungal activity against Cryptococcus neoformans var. grubii by broth microdilution method; format: functional, organism-based
Candida albicans [3] = experiment: Antifungal activity against fluconazole-resistant Candida albicans 96-489 by broth microdilution method; format: functional, organism-based
Pichia kudriavzevii [4] = experiment: Antifungal activity against fluconazole-resistant Candida krusei by broth microdilution method; format: functional, organism-based
Candida albicans [5] = experiment: Antifungal activity against Candida albicans ATCC 14503 by broth microdilution method; format: functional, organism-based
Cryptococcus gattii [6] = experiment: Antifungal activity against Cryptococcus neoformans var. gatti by broth microdilution method; format: functional, organism-based; conditions: Cryptococcus bacillisporus
Candida albicans [7] = experiment: Antifungal activity against fluconazole-resistant Candida albicans UCD-FRI by broth microdilution method; format: functional, organism-based
Cryptococcus neoformans [8] = experiment: Antifungal activity against Cryptococcus neoformans var. grubii at 64 ug by broth microdilution method; format: functional, organism-based
Nakaseomyces glabratus [9] = experiment: Antifungal activity against Candida glabrata at 64 ug by broth microdilution method; format: functional, organism-based
Candida albicans [10] = experiment: Antifungal activity against Candida albicans ATCC 14503 at 64 ug by broth microdilution method; format: functional, organism-based
Cryptococcus gattii [11] = experiment: Antifungal activity against Cryptococcus neoformans var. gatti at 64 ug by broth microdilution method; format: functional, organism-based; conditions: Cryptococcus bacillisporus
Pichia kudriavzevii [12] = experiment: Antifungal activity against fluconazole-resistant Candida krusei at 64 ug by broth microdilution method; format: functional, organism-based
Candida albicans [13] = experiment: Antifungal activity against fluconazole-resistant Candida albicans 96-489 at 64 ug by broth microdilution method; format: functional, organism-based
Candida albicans [14] = experiment: Antifungal activity against fluconazole-resistant Candida albicans UCD-FRI at 64 ug by broth microdilution method; format: functional, organism-based
HCT-116 = experiment: Cytotoxicity against human HCT116 cells; format: cell-based

SMILES | Activity (Nakaseomyces glabratus [1]) | Activity (Cryptococcus neoformans [2]) | Activity (Candida albicans [3]) | Activity (Pichia kudriavzevii [4]) | Activity (Candida albicans [5]) | Activity (Cryptococcus gattii [6]) | Activity (Candida albicans [7]) | Activity (Cryptococcus neoformans [8]) | Activity (Nakaseomyces glabratus [9]) | Activity (Candida albicans [10]) | Activity (Cryptococcus gattii [11]) | Activity (Pichia kudriavzevii [12]) | Activity (Candida albicans [13]) | Activity (Candida albicans [14]) | Activity (HCT-116)
CCCCCCCCCCCCC/C=C/[C@@H](O)[C@@H](N)CO [SPHINGOSINE] | 30 µg/mL | – | – | – | – | – | – | – | – | – | – | – | – | – | –
CCCCCCCCCCCCCC#CC1=N[C@H]1C(=O)OC | Active | Active | Active | Active | Active | Active | Active | – | – | – | – | – | – | – | –
COC(=O)[C@H]1N=C1/C=C\CCCCCCCCCC=C(Br)Br | – | – | – | – | – | – | – | inactive | inactive | inactive | inactive | inactive | inactive | inactive | Active
COC(=O)[C@H]1N=C1/C=C/CCCCCCCCCC=C(Cl)Cl | – | – | – | – | – | – | – | inactive | inactive | inactive | inactive | inactive | inactive | inactive | Active
COC(=O)[C@H]1N=C1/C=C/CCCCCCCCCC=C(Br)Br | – | – | – | – | – | – | – | inactive | inactive | inactive | inactive | inactive | inactive | inactive | Active
CCCCCCCCCC/C=C\C1=N[C@H]1C(=O)OC | Active | Active | Active | Active | Active | Active | Active | – | – | – | – | – | – | – | –
COC(=O)[C@@H]1N=C1/C=C\CCCCCCCCCCCC(C)(C)C | – | – | – | – | – | – | – | inactive | inactive | inactive | inactive | inactive | inactive | inactive | –
CCCCCCCCCCCCCCCC1=N[C@H]1C(=O)OC | – | – | – | – | – | – | – | inactive | inactive | inactive | inactive | inactive | inactive | inactive | –
CCCCC/C=C\C1=N[C@H]1C(=O)OC | – | – | – | – | – | – | inactive | – | – | – | – | – | – | – | –
COC(=O)[C@H]1N=C1/C=C/CCCCCCCCC/C=C(/Cl)Br | – | – | – | – | – | – | – | inactive | inactive | inactive | inactive | inactive | inactive | inactive | Active
COC(=O)[C@H]1N=C1/C=C\CCCCCCCCC/C=C(/Cl)Br | – | – | – | – | – | – | – | inactive | inactive | inactive | inactive | inactive | inactive | inactive | Active
